98 compounds from ChEMBL document CHEMBL3507680, “University of Dundee, Gates Library screen for HepG2 cell viability” can be followed below.

The series can be described thus: Human HepG2 cell viability assay in 384 well format. The following applies: HepG2 cells, read-out: Inhibition. Details: dose 125 nL, time 70.5 hour; cytotoxicity at 70.5 h: concentration not given beside the values. The class given is toxicity, cell-based.
In the case of `O=C(c1ccc(F)cc1)N1C[C@@H]2COC[C@]2(COc2cccnc2)C1`, the cytotoxicity at 70.5 h worked out at 14.6%. As for `O=C(NC(CN1CCCC1)c1ccccc1)c1c(O)cc(F)cc1F` (stereo not drawn), the cytotoxicity at 70.5 h is -1.92%. Regarding `O=C(c1cc2c(F)cccc2[nH]1)N1CCC(Nc2cccnn2)CC1`, the cytotoxicity at 70.5 h came to 0.884%.

On to `CCc1c(C)sc2nc3n(CCN4CCCCC4)nc(SC)n3c(=O)c12`, for which the cytotoxicity at 70.5 h came out at 13.4%. In the case of `Fc1cccnc1O[C@H]1CN(Cc2ccoc2)[C@@H]2CCCO[C@H]12` it was -4.66%; in that of `COc1ccc(S(=O)(=O)N2CC(CC(=O)O)c3ccccc32)cc1` (stereo not drawn), -0.927%; in that of `COc1c(CNC2CCc3c(F)cccc32)c(C)nn1C` (stereo not drawn), -7.24%. To `O=c1cc(Cn2ccnc2)nc2n1CCCN(Cc1ccc(F)cc1)C2` belongs -14.3%; to `CCc1n[nH]c(C2CN(C(=O)CCCn3cccn3)CCO2)n1` (stereo not drawn), 2.59%.

As for `CCC(=O)N1CCN(C(=O)c2ccc(COC)o2)[C@H]2CS(=O)(=O)C[C@H]21`, the cytotoxicity at 70.5 h is -5.66%. In the case of `CCN1CCN(C(=O)c2cc(-c3ccc(C)o3)n[nH]2)[C@H]2CS(=O)(=O)C[C@H]21` it was 42.7%; in that of `CCOc1ncccc1CN1Cc2ncccc2C1=O`, -6.82%. For `Cc1cnn(C2CN(CC(=O)N(C)Cc3cccs3)C2)c1`, the cytotoxicity at 70.5 h is -11.5%. In the case of `CN(CC(=O)NCCC#N)C(c1ccccc1)c1ccc(F)cc1` (stereo not drawn) it was -15.7%; in that of `Cc1n[nH]c2c1C(c1cc(F)cc(F)c1)SCC(=O)N2` (stereo not drawn), 17.9%.

Turning to `O=C(c1cnccn1)N1C[C@@H]2CC[C@H](C1)N(S(=O)(=O)c1cccnc1)C2`, the cytotoxicity at 70.5 h is 7.54%. In the case of `Cc1cc(N2CCC(n3cc(CN4CCC[C@@H]4CO)nn3)CC2)ccn1` it was -8.62%; in that of `Cc1cnn(C2CCCN(C(=O)COc3ccc(C(N)=O)cc3)C2)c1` (stereo not drawn), -9.97%; in that of `O=C(CN1CCCS1(=O)=O)Nc1cccc(COC2CCCCC2)c1`, -2.5%. In the case of `Fc1ccc2[nH]c(C3CCCN3Cc3c[nH]cn3)nc2c1` (stereo not drawn), the cytotoxicity at 70.5 h was 28.4%. To `Cc1ccsc1C(=O)N1CC(C(=O)NCC2CC2)C2(CCOCC2)C1` (stereo not drawn) belongs 7.19%. Regarding `OC(CN1CCC(c2ccn[nH]2)CC1)c1ccccc1F` (stereo not drawn), the cytotoxicity at 70.5 h was -4.73%. In the case of `Cc1ncccc1OC1(C(=O)NCc2noc(C(C)C)n2)CCNCC1`, the cytotoxicity at 70.5 h is -5.62%. Consider `CCCc1nc(CN2CCN(CC(O)c3ccccc3)CC2)no1` (stereo not drawn), for which the cytotoxicity at 70.5 h is -0.214%. To `NC(=O)NC(=O)CCn1ccc(-c2ccc(F)cc2)n1` belongs -1.22%.

In the case of `NCCc1nc(N(Cc2nccs2)C2CC2)c2ccccc2n1`, the cytotoxicity at 70.5 h is 37.2%. Turning to `CC1CCCN1C1CCN(C(=O)c2cccc(F)c2)CC1` (stereo not drawn), the cytotoxicity at 70.5 h came out at 6.94%. To `Cc1csc(Nc2cc(C3CCCCN3C)nc(C)n2)n1` (stereo not drawn) belongs 0.668%; to `CCOc1ccccc1C(=O)NCCc1ccoc1`, -13.5%; to `CCCc1noc(CN2CCCC2c2noc(C3CC3)n2)n1` (stereo not drawn), -4.28%. In the case of `Cc1cccc(SC2CCN(C(=O)CCCn3cnnn3)CC2)c1` it was -15.1%. `COc1c(NS(=O)(=O)c2cc(C)ccc2C)c(C)nn1C`: the cytotoxicity at 70.5 h was -63.5%. In the case of `CCc1c(O)nc(SCC(=O)Nc2ccccc2)n(C(C)CC)c1=O` (stereo not drawn) it was 22%; in that of `CNC(=O)c1cn(C(C)(C)C)c2ncccc12`, -2.43%. As for `Cc1nc(CNC(=O)c2cc(COc3cccc(F)c3)[nH]n2)n[nH]1`, the cytotoxicity at 70.5 h came out at 15.3%.

`Cc1n[nH]c(C)c1NC(=O)CN1CCn2c(nnc2C(C)C)C1`: the cytotoxicity at 70.5 h is -7.95%.

Take `Cn1cnc2cc(C(=O)NS(=O)(=O)CC3CCCC3)ccc21`: the cytotoxicity at 70.5 h turned out to be 0.122%.

With `O=c1n(CCn2cccc2)nc(C2CCNCC2)n1Cc1ccccc1`, the cytotoxicity at 70.5 h was -3.92%. As for `COC(=O)[C@H]1C[C@@H](O)CCN1S(=O)(=O)c1ccc(F)cc1F`, the cytotoxicity at 70.5 h is 21.8%. In the case of `Cc1cnc(C(=O)N2Cc3ccccc3OC3(CCOCC3)C2)cn1` it was 1.74%; in that of `O=c1oc(-c2ccc(F)cc2)nn1CN1CCSCC1`, -15%; in that of `Cc1nn(C)c2nc(-c3ccccn3)nc(NC[C@@H]3CCCO3)c12`, 2.37%. As for `CCS(=O)(=O)Nc1ccc2[nH]c(C3CCC3)nc2c1`, the cytotoxicity at 70.5 h was -6.11%.

In the case of `CCN(Cc1ccncc1)C(=O)c1cn(CC2CCCNC2)nn1` (stereo not drawn), the cytotoxicity at 70.5 h is -17.4%.

For `CN(CCO)Cc1nnc(C2CCN(C(=O)c3cccnc3)CC2)n1C`, the cytotoxicity at 70.5 h is -10.6%. To `Cc1nc(N2CCN(C(=O)C3CCCC3)CC2)c2c(n1)c(C)nn2C` belongs -0.908%; to `Cc1noc(CN(Cc2cccc(C#N)c2)Cc2ccco2)n1`, 0.0593%. In the case of `CN(C)c1cc(C(=O)NCCc2nnc(-c3ccco3)[nH]2)ccn1` it was -5.78%; in that of `CS(=O)(=O)Cc1ccc(Cl)cc1NCc1ccccc1F`, 27.6%; in that of `CCN(Cc1ccc(Cl)s1)S(=O)(=O)CCOC`, -13.3%.

Take `CS(=O)(=O)CCNCc1ccc(OCc2ccccn2)cc1`: the cytotoxicity at 70.5 h was determined as 0.418%. In the case of `c1cnc(NCc2cncc3c2CCN(Cc2ccsc2)C3)nc1` it was -7.81%; in that of `CN(C)CCN(C)c1nc(CCc2ccccc2)nc2c1cnn2C`, -1.09%; in that of `COc1ccc(-n2nc(C3CC3)nc2CCn2cnnn2)cc1`, 26.8%. To `Cc1nn(C)c(N(C)C)c1CNCc1ccc2c(c1)OCO2` belongs 29.5%; to `CN(Cc1ccco1)[C@@H]1CN(C(=O)c2cnccn2)C[C@@H]2CCCO[C@@H]21`, -2.85%.

Consider `Cc1cccc(-c2noc(CN3CCCC3Cn3cccn3)n2)c1` (stereo not drawn), for which the cytotoxicity at 70.5 h is 8.86%.

On to `Cc1cnc(C(=O)N2CCN(Cc3csc(C)n3)CC2)cn1`, for which the cytotoxicity at 70.5 h is -6.71%.

Regarding `CCCN1Cc2ccccc2CC1C(=O)NC` (stereo not drawn), the cytotoxicity at 70.5 h was -0.114%. In the case of `COc1ccc(C(=O)N2C[C@@H](C(=O)O)[C@H](c3cccc(F)c3)C2)c(O)c1` it was 5.73%.

On to `O=C(N1CCCC1)N1C[C@@H]2CCNC[C@@H]21`, for which the cytotoxicity at 70.5 h is -12%. In the case of `Cc1cc(C)n(C2CCCN(C(=O)COCC(F)(F)F)C2)n1` (stereo not drawn) it was -22.5%. In the case of `Cc1ncsc1C(=O)Nc1cccc(OCC(F)F)n1` it was -8.57%; in that of `Cc1ccc(CNC(=O)N(C)Cc2ccc([S+](C)[O-])cc2)s1` (stereo not drawn), -6.72%; in that of `COc1ccc(CNCC2CCN(CCO)CC2)cc1F`, -5.24%. To `Cc1c(F)cccc1NC(=O)N(C(C)CS(C)(=O)=O)C1CC1` (stereo not drawn) belongs -4.32%; to `N#Cc1cnc2ccccc2c1N1CCNCC1`, -1.59%; to `CC(NCc1cccnc1)c1ccc(OCC(=O)NC2CC2)cc1` (stereo not drawn), -8.83%.

`COc1ccc2c(c1)NC(=O)C2OC(=O)CCc1ccc(F)cc1` (stereo not drawn): the cytotoxicity at 70.5 h is 2.64%. On to `O=C1CCC2(CCN(Cc3ccoc3)CC2)N1OCc1ccccc1F`, for which the cytotoxicity at 70.5 h was -7.61%. For `CCCc1noc(C(C)N2CCN(Cc3nc(C)c(C)o3)CC2)n1` (stereo not drawn), the cytotoxicity at 70.5 h came out at 0.969%. In the case of `CC(C)S(=O)(=O)CC(=O)NCC(Cc1ccc(F)cc1)C(N)=O` (stereo not drawn) it was 1.75%; in that of `CC(C)(C)n1ncc2c(=O)n(CC(=O)NCc3ccco3)cnc21`, -11.6%.

Turning to `CN(C)CCN1CCO[C@@H]2CN(C(=O)Cc3ccsc3)CC[C@@H]2C1`, the cytotoxicity at 70.5 h was -8.58%.

As for `O=C(c1ccco1)N1CCO[C@@H]2CN(c3ccccc3)CC[C@@H]2C1`, the cytotoxicity at 70.5 h is 29.2%.

Turning to `COc1cc2c(cc1OC)S(=O)(=O)N(Cc1cnn(C)c1)C2=O`, the cytotoxicity at 70.5 h was -22.9%. To `COc1cccc(Cn2ncnc2CNC(C)=O)c1` belongs -10.5%; to `Cc1cc(NCCc2nc(C)cs2)nc(-c2cccnc2)n1`, -9.72%; to `CC(C)NC(=O)c1ccc(NC(=O)NC(C)c2ccccn2)cc1` (stereo not drawn), 19.1%.

Turning to `CC(C)c1cc(C(=O)N2CCN(CC3CC3)[C@@H]3CS(=O)(=O)C[C@@H]32)on1`, the cytotoxicity at 70.5 h was -0.581%. In the case of `CC(C)NC(=O)CN1CCSC2(CCCCC2)C1` it was 18.3%.

`Cc1nccn1CC1CCCN1S(=O)(=O)Cc1ccon1` (stereo not drawn): the cytotoxicity at 70.5 h came to 4.51%. To `CN1CCC2(CC1)CN(C(=O)c1cccc3cccnc13)CCN2C` belongs -8.6%; to `O=C(Nc1ccc(F)cc1)N1C[C@H]2C[C@H](C(=O)N3CCCC3)[C@@H](C1)O2`, -9.47%; to `c1cnc(N2CCC3(CCCN(CC4CCCCC4)C3)C2)cn1` (stereo not drawn), -11.2%.

For the compound `CNC(=O)c1cccc(Nc2cnn(C)c2)c1`, the cytotoxicity at 70.5 h was -1.28%. To `Cc1nc(-c2cccnc2)ncc1C(=O)N1CCCCC(N)C1` (stereo not drawn) belongs -23.9%; to `CS(=O)(=O)NCc1cc(-c2cc(F)cc(F)c2)nc(N2CCCC2)n1`, -12.8%; to `Cc1ncc(CN2CCOC(c3ccc(-c4cnn(C)c4)cn3)C2)s1` (stereo not drawn), -6.63%. In the case of `CCc1ccsc1C(=O)NC(C#N)CC` (stereo not drawn) it was -5.37%; in that of `COC(=O)[C@H](CSC)Nc1nc(C2CCCC2)nc2c1cnn2C`, -8.48%. In the case of `OC(COc1ccccc1)CN1CCN(c2nccs2)CC1` (stereo not drawn), the cytotoxicity at 70.5 h stood at 0.888%. In the case of `CC1CCCCN1C1CN(c2ccnc(C(=O)NCc3ccco3)c2)C1` (stereo not drawn) it was -15.4%; in that of `Cc1ccccc1CN(CC(=O)O)C(=O)COCC1CC1`, 0.683%; in that of `Cc1cccc(OCC2CCCN(C(=O)CCn3ccccc3=O)C2)c1` (stereo not drawn), -11.2%. In the case of `O=C1C[C@H]2CC[C@@H](CN1)N2C(=O)CCc1ccsc1` it was -9.38%. In the case of `Cc1nnsc1CN(C)C(=O)CN1CC2(CCNCC2)OC1=O` it was -2.76%; in that of `C=C(C)CNC1CCCN(Cc2noc(C3CC3)n2)C1` (stereo not drawn), -5.26%.
